US7473433B2, “Pulmonary delivery of polyene antifungal agents” (priority 2000, dated 2009)
In brackets after ≈: the same amount, converted by molar mass. Read-outs that look alike come from different tables or passages of the source.

Tests used:
[1] = Apparent solubility of AmB in pH-adjusted methanol; assay type: physicochemical; settings: for Solubility: 0 °C, MeOH
Method: (§1) In an attempt to reduce the extent of chemical degradation of amphotericin, while also finding solution conditions under which amphotericin B was reasonably soluble (e.g., to an extent greater than about 1 mg/mL), solubility experiments were conducted. The experiments were performed at room temperature for the first 2 hour while adjusting for solution pH. After the amphotericin B was completely dissolved, the samples were transferred to a 4° C. refrigerator for further chemical stability analysis. Table 7 summarizes the formulation details and apparent solubilities at specific pH conditions.
Additional solubility of amphotericin B and stability of the representative formulation, R0140, was investigated. The solubility of amphotericin at pH 5 and at pH 4.7 was investigated; additionally, the chemical stability of amphotericin B at pH 4.8 was further examined. In these experiments, samples were placed in an ice bath during the formulation preparation.

[2] = cited from earlier work
[3] = assay type: physicochemical; settings: for % AmB pH 3: MeOH pH 3, ice bath; for % AmB pH 4: MeOH pH 4, ice bath
From the text: The “extent of degradation” of a polyene is the percentage of polyene contained in the dry powder composition determined to be chemically modified from the intact starting material, as determined by a suitable chemical assay (e.g., NMR, HPLC, etc.); 100% of the polyene remaining chemically intact during the spray drying process represents an extent of degradation of 0%.
• Amphotericin B (Spectrum, New Brunswick, N.J.; Alapharma) • Nystatin (Spectrum, New Brunswick, N.J.) • Methanol dehydrated, HPLC grade (EM Industries, Gibbstown, N.J.) • Sodium Hydroxide, 50% (J. T. Baker, Phillipsburg, N.J.) • L-Leucine (Aldrich) • Hydrochloric Acid (J. T. Baker, Phillipsburg, N.J.) • Sodium Deoxycholate (Spectrum, New Brunswick, N.J.) Methods • Reverse Phase-HPLC • RP-HPLC analysis was performed on a Waters 2690HPLC system with a Waters Detector 996 (Skywalker, Inhale No.101232). The system was equipped with either a Vydac C-18 column or an YMC ODC-AQ™ C-18 column. Samples were eluted with a gradient mobile phases consisted of 10 mM sodium acetate buffer (mobile phase A) at pH 5 and CAN (mobile phase B). The flow rate was maintained at 1.0 ml/min, the detector wavelength was 383 nm, and the injection volume was 30μL (microliter). Stability Samples
as §1
Solutions were prepared as follows. Amphotericin B (AmB) was added to MeOH (3 mg AmB/mL) at either room temperature or in an ice bath. […] The chemical stability of AmB was determined by an HPLC assay as a function of time over 24 hours.

[4] = Solubility of polyenes and excipients in single solvents; assay type: physicochemical
Method: The solubility of amphotericin and excipients/additives of interest was determined in various solvents in an attempt to find a solvent system suitable for spray drying (i.e., having a sufficiently high vapor pressure) and capable of dissolving both amphotericin and any added excipients at an extent greater than about 10 mg/mL solvent. Although active agents can be spray-dried as suspensions, having the formulation components dissolved in solution provides resulting particles having a homogeneous composition (i.e., when comparing one particle to another particle)—that is to say, each particle in the composition has approximately the same composition and distribution of formulation components.
Amphotericin B is soluble in water at pHs lower than 3 and higher than 10, but only to a limited extent (0.2 mg/ml) —making the volume of solvent required for spray drying under these conditions too large to be reasonably handled. Thus, the following solubilities were experimentally determined to find a single (non-mixed) solvent system for spray drying representative amphotericin B and nystatin formulations.

C[C@@H]1[C@H](O)[C@@H](C)/C=C/C=C/C=C/C=C/C=C/C=C/C=C/[C@H](O[C@@H]2O[C@H](C)[C@@H](O)[C@H](N)[C@@H]2O)C[C@@H]2O[C@](O)(C[C@@H](O)C[C@@H](O)[C@H](O)CC[C@@H](O)C[C@@H](O)CC(=O)O[C@H]1C)C[C@H](O)[C@H]2C(=O)O [Amphotericin B]
Solubility ([1]; pH 4.7, organic solvent or mixture, pH 4.7, in ice): 3.4 mg/mL (≈ 3.68 mM) | Solubility ([1]; pH 5, organic solvent or mixture, pH 5.0, in ice): ~3 mg/mL (≈ 3.25 mM) | solubility at 2 h ([1]; organic solvent or mixture, in MeOH, room temperature, pH of the formulation 4.4, 6.9 or 9.6): 2.9 mg/mL (≈ 3.14 mM) | Solubility in water ([2]; water at pH 6 to 7): insoluble | Solubility in water ([2]; water at pHs lower than 3 and higher than 10): 0.2 mg/mL (≈ 0.216 mM) | % AmB pH 3 ([3]; 4 hr): 93% | % AmB pH 3 ([3]; 18.5 hr): 90% | % AmB pH 3 ([3]; 26 hr): 85% | % AmB pH 3 ([3]; […]): 95% | % AmB pH 4 ([3]; 1 hr): 94% | % AmB pH 4 ([3]; 4 hr): 96% | % AmB pH 4 ([3]; 18.5 hr): 97% | % AmB pH 4 ([3]; 26 hr): 93% | % AmB ([3]; MeOH pH 4.8, in ice bath, 4 hr): 99% | % AmB ([3]; MeOH pH 4.8, in ice bath, 6 hr): 97% | % AmB ([3]; MeOH pH 4.8, in ice bath, 8 hr): 94% | % AmB ([3]; MeOH pH 4.8, in ice bath, 24 hr): 97% | % AmB ([3]; MeOH pH 4.8, in ice bath, […]): 97% | % AmB ([3]; MeOH pH 4.8, room temperature, 4 hr): 85% | % AmB ([3]; MeOH pH 4.8, room temperature, 6 hr): 83% | % AmB ([3]; MeOH pH 4.8, room temperature, 8 hr): 84% | % AmB ([3]; MeOH pH 4.8, room temperature, 24 hr): 78% | % AmB ([3]; MeOH pH 4.8, room temperature, […]): 89% | AmB (%) ([3]; MeOH solution, T = 8 hr (4° C. after first 2 hr)): about 92% | Main Peak % ([3]; MeOH, pH 4.8, in ice): 92.0% | AmB (%) ([3]; MeOH, pH 4.8, in ice, during formulation preparation): 97%

C[C@@H]1[C@H](O)[C@@H](C)/C=C/C=C/CC/C=C/C=C/C=C/C=C/C(O[C@H]2O[C@H](C)[C@@H](O)[C@H](N)[C@@H]2O)CC2O[C@](O)(CC(O)C(O)CCC(O)CC(O)CC(O)CC(=O)O[C@H]1C)CC(O)C2C(=O)O (stereo partly drawn) [Nystatin]
Solubility ([4]; Acetone): 0.1 mg compound/g solvent | Solubility ([4]; Chloroform): 0.7 mg compound/g solvent | Solubility ([4]; DI Water): 1.1 mg compound/g solvent | Solubility ([4]; Ethanol): 0.8 mg compound/g solvent | Solubility ([4]; Ethyl Ether): 0.1 mg compound/g solvent | Solubility ([4]; Hexane): 0.0 mg compound/g solvent | Solubility ([4]; IP Acetate): 0.1 mg compound/g solvent | Solubility ([4]; IPA): 0.1 mg compound/g solvent | Solubility ([4]; Isobutyl Alcohol): 0.5 mg compound/g solvent | Solubility ([4]; Meth. Chloride): 3.9 mg compound/g solvent | Solubility ([4]; Methanol): 11.0 mg compound/g solvent | Solubility ([4]; Pet. Ether): 0.0 mg compound/g solvent | Solubility ([4]; THF): 1.6 mg compound/g solvent
